A value given as a limit tells only on which side of the number the result lay.

Format in all cases: cell-based, human
Assay [1] deals with lung cancer cell line A549. Put plainly: MTT cytotoxicity assay, A549. The note with it: Homo sapiens, A549 cells, 8000 cells/well, 24 h incubation with compound, absorbance 490 nm, read-out: IC50 (μmol/L) A549. The text has this:
(§1) A small library derived from 6a–b, 9 and 10a–c was obtained by hydrolysis of the macrocycles and condensation with amines. The anti-tumor activities for lung cancer cell line A549, breast cancer cell line MDA-MB-231 and hepatocarcinoma cell line Hep G2 of all these new compounds were screened in vitro by an MTT assay. Most of the compounds show some inhibitory activities against A549, MDA-MB-231 and Hep G2. […] In the future, further structure–activity relationship studies will be performed to determine how the substituents affected the anti-tumor activity and to design the best chemical structure in the future.
(§2) The human lung cancer cell line A549, breast cancer cell line MDA-MB-231 and hepatocarcinoma cell line Hep G2 were cultured in Dulbecco’s modified Eagle’s medium (DMEM) supplemented with antibiotics (penicillin 50 U/mL; streptomycin 50 µg/mL) and 10% FCS. The incubation was at 37 °C in a humidified atmosphere of 5% CO2 in air before experiments. Cells were first seeded at a density of 8000 cells/well in a 96-well plate for 48 hours. Solutions containing respective concentrations of compounds were added into wells and incubation continued for another 24 hours. After that, the MTT (3-(4,5-dimethylthiazol-2-yl)-2,5-diphenyltetrazolium bromide) dye stock solution (10 μL, 5 mg/mL) was added to each well. After 4 h, the supernatant was removed and DMSO (100 μL) was added to solubilize the MTT. The absorbance was measured at a wave length of 490 nm (A490nm) on an ELISA microplate reader. Results were expressed as IC50 values.
Background: Formazan colour is commonly taken as a measure of viable cells.

The subject of assay [2] is breast cancer cell line MDA-MB-231. Put plainly: MTT cytotoxicity assay, MDA-MB-231. The note with it: Homo sapiens, MDA-MB-231 cells, 8000 cells/well, 24 h incubation with compound, absorbance 490 nm, read-out: IC50 (μmol/L) MDA-MB-231.
From the text: as §1, §2

The test system of assay [3] is hepatocarcinoma cell line Hep G2. Put plainly: MTT cytotoxicity assay, Hep G2. The note with it: Homo sapiens, HepG2, Hep G2 cells, 8000 cells/well, 24 h incubation with compound, absorbance 490 nm, read-out: IC50 (μmol/L) Hep G2.
From the text: as §1, §2

As to `CC(C)CNC(=O)[C@@H]1C[C@@H]2CN1C(=O)c1cccc(c1)OCCn1nncc1CO2` [Compound 29, (12R,14S)-16-Oxo-N-isobutyl-2,11-dioxa-5,6,7,15-tetraaza-tetracyclo[15.3.1.1^12,15.0^5,9]docosane-6,8,1(21),17,19-pentaene-14-carboxamide], the IC50 in assay [1] worked out at 32.2 µmol/L; in assay [2] it was 43.2 µmol/L; in assay [3] it was 37.3 µmol/L.

On to `NC(=O)[C@@H]1C[C@@H]2CN1C(=O)c1cccc(c1)OCCCCCO2` [Compound 39, (9R,11S)-13-Oxo-2,8-dioxa-12-aza-tricyclo[12.3.1.1^9,12]nonadecane-1(18),14,16-triene-11-carboxamide], for which the IC50 in assay [1] is 63.7 µmol/L; in assay [2] it was 57.3 µmol/L; in assay [3], more than 100 µmol/L.

Consider `NC(=O)[C@@H]1C[C@@H]2CN1C(=O)c1cccc(c1)OCCCCO2` [Compound 35, (8R,10S)-12-Oxo-2,7-dioxa-11-aza-tricyclo[11.3.1.1^8,11]octadecane-1(17),13,15-triene-10-carboxamide], for which the IC50 worked out at 89.5 µmol/L in assay [1], 90.5 µmol/L in assay [2] and 91.5 µmol/L in assay [3].

These data come from article PMC6274554, “Synthetic Strategy and Anti-Tumor Activities of Macrocyclic Scaffolds Based on 4-Hydroxyproline” (Molecules, 2016).
